Data taken from US11154593B2, “CNP prodrugs with large carrier moieties” (ASCENDIS PHARMA GROWTH DISORDERS A/S, priority 2016, dated 2021).
Where two headings read alike, the source gives them in different places.

Tests used:
recombinant human NEP = recombinant human NEP (Homo sapiens, UniProt P08473); assay: Digest of CNP variants by Neutral Endopeptidase in vitro (NEP digest assay); details: pH 7.4
Method: (§1) In order to determine the in vitro stability of various CNP variants including different peptide chain lengths and PEGylations using different PEGylation sites and PEG molecules in the presence of Neutral Endopeptidase (NEP), a NEP digest assay was established. This assay monitored the decrease of the non-digested CNP variant (normalized with the internal standard PFP) over time in reference to the t0-time point.
(§2) In detail, recombinant human NEP (2.5 μg/mL final concentration) and the standard pentafluorophenol (PFP; 40 μg/mL final concentration) were added to the CNP variant (100 μg CNP equivalents/mL) in digest buffer (50 mM Tris-HCl, pH 7.4, 10 mM NaCl). The solution was incubated at 37° C. and 500 rpm for up to 4 days. Samples were taken at different time intervals. The reaction was stopped by a combined reduction and heat denaturation adding TCEP (tris(2-carboxyethyl)phosphine; 25 mM final concentration) and incubating the mixture at 95° C., 500 rpm for 5 minutes. The resulting reaction products were assigned using HPLC-MS. The half life of each CNP variant was calculated via the ratio change in the HPLC-UV peak areas of CNP and PFP over time.

NPR-B = target: T1, NPR-B (Mus musculus, UniProt Q6VVW5); assay: Functional cGMP stimulation in NIH-3T3 cells with CNP variants; format: cell-based, Murine; details: cGMP TR-FRET, 30 min, 37° C.
T1 construct: These cells express endogenously NPR-B on the cell surface; endogenous in cells; host or cells: NIH-3T3 (murine embryo fibroblasts)
T1 sequence (Q6VVW5 17-1047): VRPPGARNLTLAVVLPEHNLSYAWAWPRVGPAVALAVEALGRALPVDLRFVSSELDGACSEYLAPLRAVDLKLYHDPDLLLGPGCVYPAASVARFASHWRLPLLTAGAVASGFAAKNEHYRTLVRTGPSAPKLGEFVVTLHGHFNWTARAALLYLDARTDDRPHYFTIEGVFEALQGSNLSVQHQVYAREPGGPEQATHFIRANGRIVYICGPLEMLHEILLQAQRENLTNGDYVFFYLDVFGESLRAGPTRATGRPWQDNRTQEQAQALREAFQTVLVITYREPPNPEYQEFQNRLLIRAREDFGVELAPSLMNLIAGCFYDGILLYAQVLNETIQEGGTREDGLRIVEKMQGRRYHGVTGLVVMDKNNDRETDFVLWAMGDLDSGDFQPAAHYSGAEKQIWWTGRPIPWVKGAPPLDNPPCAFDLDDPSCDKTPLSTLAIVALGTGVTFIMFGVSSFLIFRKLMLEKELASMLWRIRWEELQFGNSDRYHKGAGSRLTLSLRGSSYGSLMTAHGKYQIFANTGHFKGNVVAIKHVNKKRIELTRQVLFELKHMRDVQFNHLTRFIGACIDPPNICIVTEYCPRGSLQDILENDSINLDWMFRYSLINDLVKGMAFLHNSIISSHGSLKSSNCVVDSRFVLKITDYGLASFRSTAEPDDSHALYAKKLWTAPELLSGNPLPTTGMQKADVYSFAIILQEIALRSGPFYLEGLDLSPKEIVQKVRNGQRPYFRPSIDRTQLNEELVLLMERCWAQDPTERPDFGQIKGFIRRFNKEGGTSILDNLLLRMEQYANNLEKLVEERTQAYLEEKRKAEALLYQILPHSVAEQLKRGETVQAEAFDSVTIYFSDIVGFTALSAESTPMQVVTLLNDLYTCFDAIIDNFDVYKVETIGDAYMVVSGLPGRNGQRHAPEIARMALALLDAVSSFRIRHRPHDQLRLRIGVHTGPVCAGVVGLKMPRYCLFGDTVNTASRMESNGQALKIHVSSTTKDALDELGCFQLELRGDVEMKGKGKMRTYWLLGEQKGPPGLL
Method: Functional activity of CNP variants were determined in a cell-based assay with NIH-3T3 cells (Murine Embryo Fibroblast cell line). These cells express endogenously NPR-B on the cell surface. Stimulation of NPR-B with CNP leads to intracellular production of the second messenger cGMP which is detected with a commercially available cGMP assay. NIH-3T3 cells were routinely cultured in DMEM F-12 medium with 5% FBS and 5 mM glutamine at 37° C. and 5% CO2. For each assay, 50,000 cells were resuspended in stimulation buffer (Dulbecco's PBS with IBMX) and incubated with the CNP variants in different concentrations. CNP (dilutions were made in PBS with 0.2% BSA). After incubation of 30 min at 37° C. and 5% CO2, the cells were lyzed and cGMP levels were determined with a commercially available cGMP TR-FRET assay (Cisbio, cGMP kit, Cat. No. 62GM2PEB). PEGylated CNP variants were always characterized in comparison with the non-PEGylated version in the same experiment batch. If possible, evaluation of the residual activity was done via the EC50- parameter of the resulting dose-response curve (restricted model with common slope).
After 7 d, released CNP-38 was isolated by RP-HPLC and analyzed for bioactivity as described in Example 22.

NPR-C = target: T2, NPR-C (Homo sapiens, UniProt P17342); assay: NPR-C affinity assay (competition with fluorescein-labelled CNP 27d, flow cytometry); details: NPR-C expressing Hek293 cell line
T2 sequence (P17342 27-541): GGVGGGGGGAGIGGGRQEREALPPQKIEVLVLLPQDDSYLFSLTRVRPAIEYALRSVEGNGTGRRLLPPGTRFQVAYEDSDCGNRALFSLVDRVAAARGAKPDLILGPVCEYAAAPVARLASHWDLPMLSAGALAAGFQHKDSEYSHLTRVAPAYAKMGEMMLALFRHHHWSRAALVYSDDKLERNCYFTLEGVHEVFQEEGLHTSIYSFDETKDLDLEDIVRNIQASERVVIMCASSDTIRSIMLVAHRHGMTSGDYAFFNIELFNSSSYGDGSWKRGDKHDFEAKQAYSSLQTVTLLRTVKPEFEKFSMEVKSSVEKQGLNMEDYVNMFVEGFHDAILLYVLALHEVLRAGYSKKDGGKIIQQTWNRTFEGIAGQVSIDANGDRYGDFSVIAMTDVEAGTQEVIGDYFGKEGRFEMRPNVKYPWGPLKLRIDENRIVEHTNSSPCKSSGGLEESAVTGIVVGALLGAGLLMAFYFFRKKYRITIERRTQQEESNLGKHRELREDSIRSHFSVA

[1] = Evaluation of cardiovascular effects in the conscious telemetered mouse (subcutaneous administration); format: in vivo; details: for MAP during the remaining ten time points versus vehicle / change in MAP at the 5, 15 and 30 min post dose time points compared to predose / MAP (mean ± SD): 800 μg CNP-38 (eq)/kg sc; for MAP during the remaining ten time points versus vehicle: 1 to 48 hours postdose; for change in MAP at the 5, 15 and 30 min post dose time points compared to predose: CNP-38: 3 of 4 animals
Method: Male Crl:CDl(ICR) mice (age range 8-13 weeks and body weight range 27.3-35.6 g at start of dosing) were surgically implanted with a TA11PA-C10 telemetry transmitter (Data Sciences International (DSI)) in the carotid artery. The body of the transmitter was placed subcutaneously in the lateral flank of the mouse. The mice were dosed subcutaneously in a latin square crossover design with at least 72 hours between dosing occasions. […] At least four mice were included at each dose level. Blood pressure (systolic (SAP), diastolic (DAP) and mean (MAP) and heart rate (HR, derived from blood pressure), were recorded using a digital data capture system linked with a DSI™ Ponemah data acquisition and analysis system. The capture system allowed recording of the cardiovascular parameters whilst the mice were in individual cages. On the day of each test session the animals were weighed and a predose recording was performed for at least 60 min prior to dosing. Each mouse was returned to the home cage and the cardiovascular parameters were recorded for approximately 48 hours postdose. Blood pressure and HR were reported at the following time points: -30, -20, -10, 5, 15 and 30 min postdose and 1, 2, 6, 12, 18, 24, 30, 36, 42 and 48 hours postdose. Each time point was presented as the average value of five minute's recording prior to the time point. The monitoring period was selected to cover exposure to the test items both prior to and after Tmax.

[2] = Pharmacokinetic profile of CNP-38 after subcutaneous single-dose administration to cynomolgus monkeys; format: in vivo
Method: Blood samples were collected at 5, 10, 15, 30, 45 min and 1, 2, 4, 8 hours upon dose.
Method: Plasma levels of CNP were analysed using a commercially available competitive radioimmuno-assay (RK-012-03, Phoenix Pharmaceuticals, CA). The assay was applied essentially as described by the manufacturer. The assay is based on competitive binding between 1251-labelled CNP (supplied in the kit) and unlabeled CNP (from study sample or calibrants) to an anti-CNP antibody. […] By measuring the amount of 1251-labelled CNP bound as a function of the concentration of peptide, it is possible to construct a calibration curve from which the concentration of peptide in the sample can be determined.
A few changes to the supplied assay protocol were made. These changes included using in-house CNP calibrant and QC samples to secure consistency between assay runs. […] Due to matrix effects in monkey plasma, the minimal required dilution was set at 1:10, yielding an assay range of 150-1080 μg/mL CNP.

[3] = target: Neutral Endopeptidase (NEP) (Homo sapiens, UniProt P08473); assay: in vitro; details: pH 7.4
Method: as §1, §2

[4] = in vivo; cited from earlier work
[5] = doses up to 15 μg/kg, healthy volunteers; cited from earlier work
[6] = male, cynomolgus monkey, in vivo, sc, 40 ug/kg

Sequence of recombinant human NEP (P08473 whole entry): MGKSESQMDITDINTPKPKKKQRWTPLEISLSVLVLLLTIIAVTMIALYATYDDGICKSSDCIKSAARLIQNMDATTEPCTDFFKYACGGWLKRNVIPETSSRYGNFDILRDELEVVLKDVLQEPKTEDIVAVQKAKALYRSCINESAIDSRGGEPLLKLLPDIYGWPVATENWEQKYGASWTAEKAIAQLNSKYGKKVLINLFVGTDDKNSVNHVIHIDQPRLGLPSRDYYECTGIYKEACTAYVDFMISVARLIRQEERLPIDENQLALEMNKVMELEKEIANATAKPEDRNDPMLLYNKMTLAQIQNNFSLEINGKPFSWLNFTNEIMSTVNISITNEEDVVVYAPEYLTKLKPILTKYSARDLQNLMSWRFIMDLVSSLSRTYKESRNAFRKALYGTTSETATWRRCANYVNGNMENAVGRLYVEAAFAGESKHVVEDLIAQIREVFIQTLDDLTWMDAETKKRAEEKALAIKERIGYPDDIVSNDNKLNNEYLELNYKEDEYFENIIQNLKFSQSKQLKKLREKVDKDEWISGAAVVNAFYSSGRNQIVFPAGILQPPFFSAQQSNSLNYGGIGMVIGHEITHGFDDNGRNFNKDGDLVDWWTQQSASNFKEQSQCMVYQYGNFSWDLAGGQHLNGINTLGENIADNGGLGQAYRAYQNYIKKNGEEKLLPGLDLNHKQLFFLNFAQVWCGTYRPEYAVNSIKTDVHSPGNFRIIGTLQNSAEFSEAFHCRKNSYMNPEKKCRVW
Sequence of Neutral Endopeptidase (NEP) (P08473 whole entry): as above

Permanent Lys22 CNP-34 PEG 5 kDa Conjugate [Conjugate 18e]
half life norm. (recombinant human NEP): 38.87 h

Permanent N-Terminal CNP-38 PEG 5 kDa Conjugate [Conjugate 15e]
half life norm. [h] (recombinant human NEP): Almost no proteolysis | EC50 compound/EC50 CNP-38 (residual NPR-B activity) (NPR-B): >5 | IC50 of PEGylated CNP-38/IC50 CNP-38 (residual NPR-C affinity) (NPR-C): 0.53

Reversible Lys26 CNP-38 PEG4×10 kDa Conjugate [Conjugate 11i]
MAP during the remaining ten time points versus vehicle [1]: no difference in MAP | change in MAP at the 5, 15 and 30 min post dose time points compared to predose [1]: physiological increase in MAP | MAP (mean ± SD) ([1]; 5 min post dose): 122.8 ± 5.9 mmHg | MAP (mean ± SD) ([1]; 15 min post dose): 121.5 ± 7.5 mmHg | MAP (mean ± SD) ([1]; 30 min post dose): 111.5 ± 13.7 mmHg | MAP (mean ± SD) ([1]; predose): 106.4 ± 10.7 mmHg | effect on blood pressure (conclusion) ([1]; subcutaneous, dosage equivalent to CNP-38): did not decrease blood pressure

Permanent Lys26 CNP-38 PEG 5 kDa Conjugate [Conjugate 19e]
half life norm. (recombinant human NEP): 62.76 h | EC50 compound/EC50 CNP-38 (residual NPR-B activity) (NPR-B): >100 | IC50 of PEGylated CNP-38/IC50 CNP-38 (residual NPR-C affinity) (NPR-C): 1.1

Permanent N-Terminal CNP-34 PEG 5 kDa Conjugate [Conjugate 14e]
half life norm. [h] (recombinant human NEP): Almost no proteolysis

CC[C@H](C)[C@@H]1NC(=O)[C@H](CCCNC(=N)N)NC(=O)[C@H](CC(=O)O)NC(=O)[C@H](CC(C)C)NC(=O)[C@H](CCCCN)NC(=O)[C@H](CC(C)C)NC(=O)CNC(=O)[C@H](Cc2ccccc2)NC(=O)[C@@H](NC(=O)CNC(=O)[C@H](CCCCN)NC(=O)[C@H](CO)NC(=O)[C@H](CC(C)C)NC(=O)CNC(=O)[C@H](CCCCN)NC(=O)[C@H](CCCCN)NC(=O)[C@H](CC(N)=O)NC(=O)[C@H](C)NC(=O)CNC(=O)[C@H](CCCCN)NC(=O)[C@H](Cc2ccc(O)cc2)NC(=O)[C@H](CCCCN)NC(=O)[C@H](CCCNC(=N)N)NC(=O)[C@H](C)NC(=O)[C@H](CC(N)=O)NC(=O)[C@@H]2CCCN2C(=O)[C@H](Cc2c[nH]cn2)NC(=O)[C@H](CCC(=O)O)NC(=O)[C@H](CCC(N)=O)NC(=O)[C@@H](N)CC(C)C)CSSC[C@@H](C(=O)O)NC(=O)CNC(=O)[C@H](CC(C)C)NC(=O)CNC(=O)[C@H](CO)NC(=O)[C@H](CCSC)NC(=O)[C@H](CO)NC(=O)CNC1=O [CNP-38, reference compound]
AUC(0-t) [2, 6]: 2.5 ng·h/mL | Cmax [2, 6]: 7.9 ng/mL | Tmax [2, 6]: 0.167 h | half-life ([2]; male, cynomolgus monkey, in vivo, sc, 40 ug/kg, Half-life (mean)): ~7 min | tolerability ([2]; single s.c. 40 μg/kg): well tolerated | MAP during the remaining ten time points versus vehicle [1]: no difference in MAP | change in MAP at the 5, 15 and 30 min post dose time points compared to predose [1]: significant decrease in MAP | MAP (mean ± SD) ([1]; 5 min post dose): 102.0 ± 7.5 mmHg | MAP (mean ± SD) ([1]; 15 min post dose): 89.5 ± 29.4 mmHg | MAP (mean ± SD) ([1]; 30 min post dose): 99.5 ± 25.2 mmHg | MAP (mean ± SD) ([1]; predose): 106.8 ± 13.4 mmHg | half-life at 100 μg CNP equivalents/mL [3]: 12.1 h

Permanent Lys26 CNP-38 PEG4×10 kDa Conjugate [Conjugate 12g]
half life norm. [h] (recombinant human NEP): Almost no proteolysis

Permanent Lys16 CNP-34 PEG 5 kDa Conjugate [Conjugate 17e]
half life norm. (recombinant human NEP): 54.23 h

BMN-111
half-life [4]: 0.333 h | blood pressure effect [5]: mild hypotension
